In brackets after ≈: the same amount, converted by molar mass. Read-outs that look alike come from different tables or passages of the source.
Experiments:
in vitro = conditions: African green monkey
Mtb [1] = assay: microbe, parasite or virus in culture; type: cell-based, Mycobacterium tuberculosis; conditions: Mycobacterium tuberculosis
Mtb [2] = assay: microbe, parasite or virus in culture; type: cell-based, Mycobacterium tuberculosis; conditions: Mycobacterium tuberculosis, read-out: MIC (III)
[3] = read-out: MIC, microplate alamar blue assay (MABA; I)

SMILES	CC50 (in vitro) [µg/mL]	MIC (Mtb [1]; read-out: MIC (I)) [µg/mL]	MIC (Mtb [2]) [µg/mL]	MIC (Mtb [1]; [3]) [µg/mL]
CCOC(=O)NC(=O)c1cc(F)sc1NC(=O)c1nc2ccccc2s1 [Compound 16]	25 to 50 (≈ 63.5 to 127 µM)	< 1	–	–
O=C(NC(=O)c1cc(F)sc1NC(=O)c1nc2ccccc2s1)OCC(F)(F)F [Compound 17]	< 25	< 1	–	–
CC(OC(=O)NC(=O)c1ccsc1NC(=O)c1nc2ccccc2s1)C(F)(F)F (centres unmarked) [Compound 24]	< 25	< 1	–	–
CC(C)(OC(=O)NC(=O)c1ccsc1NC(=O)c1nc2ccccc2s1)C(F)(F)F [Compound 25]	25 to 50 (≈ 54.7 to 109 µM)	< 1	–	–
CCOC(=O)NC(=O)c1ccsc1NC(=O)c1ccc2ocnc2c1 [Compound 26]	> 50	< 1	–	–
CCOC(=O)NC(=O)c1ccsc1NC(=O)c1ccc2c(c1)OCO2 [Compound 27]	< 25	< 1	–	–
O=C(NC(=O)c1ccsc1NC(=O)c1nc2ccccc2s1)OC1CCCCC1 [Compound 30]	> 50	< 1	–	–
O=C(NC(=O)c1ccsc1NC(=O)c1nc2ccccc2s1)OC1CCCC1 [Compound 31]	> 50	< 1	–	–
O=C(NC(=O)c1ccsc1NC(=O)c1nc2ccccc2s1)OCCN1CCOCC1 [Compound 38]	> 50	< 1	–	–
CN(C)CCOC(=O)NC(=O)c1ccsc1NC(=O)c1nc2ccccc2s1 [Compound 39]	> 50	> 3	–	–
O=C(NC(=O)c1ccsc1NC(=O)c1nc2ccccc2s1)OCC(F)F [Compound 40]	< 25	< 1	–	–
CCOC(=O)NC(=O)c1ccsc1NC(=O)c1ccc2ncsc2c1 [Compound 42]	< 25	< 1	–	–
CCOC(=O)NC(=O)c1c(C)csc1NC(=O)c1nc2ccccc2s1 [Compound 44]	> 50	1 to 3 (≈ 2.57 to 7.7 µM)	–	–
CN(C)C(=O)NC(=O)c1ccsc1NC(=O)c1nc2ccccc2s1 [Compound 45]	> 50	> 3	–	–
CCOC(=O)NC(=O)c1ccsc1NC(=O)c1nc2cc(C#N)cnc2s1 [Compound 54]	–	< 1	> 25	–
CCOC(=O)NC(=O)c1ccsc1NC(=O)c1nc2c(s1)CCNC2=O [Compound 55]	–	> 3	> 25	–
CCOC(=O)NC(=O)c1ccsc1NC(=O)c1cn2ccncc2n1 [Compound 78]	–	> 3	> 25	–
CCOC(=O)NC(=O)c1ccsc1NC(=O)c1nc2c(s1)CCN(CC)C2 [Compound 79]	–	1 to 3 (≈ 2.45 to 7.34 µM)	> 25	–
CCOC(=O)NC(=O)c1ccsc1NC(=O)c1cnc2ncccn12 [Compound 80]	–	1 to 3 (≈ 2.78 to 8.35 µM)	> 25	–
CCOC(=O)NC(=O)c1ccsc1NC(=O)c1cnc2ccnn2c1 [Compound 81]	–	< 1	> 25	–
CCOC(=O)NC(=O)c1ccsc1NC(=O)c1nc2c(s1)CCN(C(=O)OC)C2 [Compound 95]	–	< 1	> 25	–
CCOC(=O)NC(=O)c1ccsc1NC(=O)c1nc2c(s1)CCN(S(C)(=O)=O)C2 [Compound 96]	–	< 1	> 25	–
CCOC(=O)NC(=O)c1ccsc1NC(=O)c1csc2c1CCN(S(C)(=O)=O)C2 [Compound 230]	> 50	–	–	–
CCOC(=O)NC(=O)c1ccsc1NC(=O)c1csc2c1CCCC2 [Compound 231]	< 25	–	–	–
CCOC(=O)NC(=O)c1ccsc1NC(=O)c1cc2c(s1)CCN(S(C)(=O)=O)C2 [Compound 232]	> 50	–	–	–

SMILES	CC50 (in vitro) [µg/mL]	MIC (Mtb [1]; read-out: MIC (I)) [µg/mL]	MIC (Mtb [2]) [µg/mL]	MIC (Mtb [1]; [3]) [µg/mL]
CCOC(=O)NC(=O)c1ccsc1NC(=O)c1nc2c(s1)N(S(C)(=O)=O)CCC2 [Compound 233]	> 50	–	–	–
COC(=O)CNC(=O)c1ccsc1NC(=O)c1nc2ccccc2s1 [Compound 234]	> 50	–	–	–
CNC(=O)CNC(=O)c1ccsc1NC(=O)c1nc2ccccc2s1 [Compound 235]	> 50	–	–	–
COC(=O)CCCNC(=O)c1ccsc1NC(=O)c1nc2ccccc2s1 [Compound 236]	> 50	–	–	–
CCOC(=O)NC(=O)c1ccsc1NC(=O)Cc1nc2ccccc2s1 [Compound 238]	25 to 50 (≈ 64.2 to 128 µM)	–	–	–
CCOC(=O)NC(=O)c1ccsc1NC(=O)c1cc2c(s1)CCCC2 [Compound 239]	> 50	–	–	–
CCOC(=O)NC(=O)c1ccsc1NC(=O)c1nc(-c2ccccc2)cs1 [Compound 240]	> 50	–	–	–
CCOC(=O)NC(=O)c1ccsc1NC(=O)c1ccc(-c2csc(C)n2)cc1 [Compound 241]	> 50	–	–	–
CCOC(=O)NC(=O)c1c(C2CC2)csc1NC(=O)c1nc2ccccc2s1 [Compound 245]	–	> 3	> 25	–
CCOC(=O)NC(=O)c1ccsc1NC(=O)c1cccnn1 [Compound 249]	–	> 3	> 25	–
CCOC(=O)NC(=O)c1ccsc1NC(=O)c1cc2ncccn2n1 [Compound 250]	–	< 1	5 to 25 (≈ 13.9 to 69.6 µM)	–
CCOC(=O)NC(=O)c1ccsc1NC(=O)c1ccn2nccc2c1 [Compound 251]	–	< 1	5 to 25 (≈ 14 to 69.8 µM)	–
CCOC(=O)NC(=O)c1ccsc1NC(=O)c1ccn2nccc2n1 [Compound 252]	–	> 3	> 25	–
CCOC(=O)NC(=O)c1ccsc1NC(=O)c1cnn2cccnc12 [Compound 253]	–	> 3	> 25	–
CC(C)OC(=O)NC(=O)c1ccsc1NC(=O)c1cn2ccccc2n1 [Compound 323]	–	1 to 3 (≈ 2.69 to 8.06 µM)	> 25	–
O=C(NC(=O)c1ccsc1NC(=O)c1cnc2ccnn2c1)OC1CCC1 [Compound 324]	–	< 1	> 25	–
CC(OC(=O)NC(=O)c1ccsc1NC(=O)c1nc2cnccc2s1)C(F)(F)F (centres unmarked) [Compound 325]	–	< 1	> 25	–
CCOC(=O)NC(=O)c1ccsc1NC(=O)c1cc(=O)c2ccccc2o1 [Compound 400]	< 25	–	–	< 1
CC(C)OC(=O)NC(=O)c1ccsc1NC(=O)c1cc(=O)c2ccccc2o1 [Compound 401]	< 25	–	–	< 1
CCOC(=O)NC(=O)c1ccsc1NC(=O)c1ccc2nonc2c1 [Compound 402]	< 25	–	–	< 1
CC(C)OC(=O)NC(=O)c1ccsc1NC(=O)c1ccc2nonc2c1 [Compound 403]	< 25	–	–	< 1
COc1ccc2c(c1)C=C(C(=O)Nc1sccc1C(=O)NC(=O)OC(C)C)CO2 [Compound 404]	< 25	–	–	< 1
CCOC(=O)NC(=O)c1ccsc1NC(=O)c1cn2ccc(C#N)cc2n1 [Compound 405]	< 25	–	–	1 to 3 (≈ 2.61 to 7.82 µM)
O=C(NC(=O)c1ccsc1NC(=O)c1nc2cnccc2s1)OCC(F)(F)F [Compound 406]	< 25	–	–	< 1
CCOC(=O)NC(=O)c1ccsc1NC(=O)c1cc2cccc(F)c2s1 [Compound 407]	< 25	–	–	< 1

SMILES	CC50 (in vitro) [µg/mL]	MIC (Mtb [1]; read-out: MIC (I)) [µg/mL]	MIC (Mtb [2]) [µg/mL]	MIC (Mtb [1]; [3]) [µg/mL]
CC(C)OC(=O)NC(=O)c1ccsc1NC(=O)c1cc2cccc(F)c2s1 [Compound 408]	< 25	–	–	< 1
CCOC(=O)NC(=O)c1ccsc1NC(=O)c1nc2nc(C)c(Cl)cc2s1 [Compound 409]	25 to 50 (≈ 58.8 to 118 µM)	–	–	< 1
CC(C)OC(=O)NC(=O)c1ccsc1NC(=O)c1ccc2ncsc2c1 [Compound 410]	< 25	–	–	< 1
CCOC(=O)NC(=O)c1ccsc1NC(=O)c1nc2cc(CNC(=O)OC(C)(C)C)cnc2s1 [Compound 411]	25 to 50 (≈ 49.4 to 98.9 µM)	–	–	< 1
CCOC(=O)NC(=O)c1ccsc1NC(=O)c1nc2ccc(OC)cc2s1 [Compound 412]	> 50	–	–	< 1
CCOC(=O)NC(=O)c1ccsc1NC(=O)c1ccc2sc(C(C)C)nc2c1 [Compound 413]	> 50	–	–	< 1
CCOC(=O)NC(=O)c1ccsc1NC(=O)c1ccc2sc(C3CC3)nc2c1 [Compound 414]	> 50	–	–	< 1
CCOC(=O)NC(=O)c1ccsc1NC(=O)c1ccc2sc(C(C)(C)C)nc2c1 [Compound 415]	> 50	–	–	> 3
CCOC(=O)NC(=O)c1ccsc1NC(=O)c1nc2cc(CN)cnc2s1 [Compound 416]	> 50	–	–	1 to 3 (≈ 2.47 to 7.4 µM)
O=C(Nc1sccc1C(=O)NC(=O)N1CCCCC1)c1nc2cnccc2s1 [Compound 428]	> 50	–	–	1 to 3 (≈ 2.41 to 7.22 µM)
O=C(Nc1sccc1C(=O)OC1CCCC1)c1nc2ccccc2s1 [Compound 429]	> 50	–	–	> 3
O=C(Nc1sccc1C(=O)OC1CCCCC1)c1nc2ccccc2s1 [Compound 430]	> 50	–	–	> 3
COC(=O)COC(=O)NC(=O)c1ccsc1NC(=O)c1nc2cnccc2s1 [Compound 431]	25 to 50 (≈ 59.5 to 119 µM)	–	–	< 1
COC(=O)c1ccsc1NC(=O)c1nc2cnccc2s1 [Compound 432]	25 to 50 (≈ 78.3 to 157 µM)	–	–	> 3
CC(C)OC(=O)NC(=O)c1ccsc1NC(=O)c1cn2ccc(C#N)cc2n1 [Compound 433]	25 to 50 (≈ 62.9 to 126 µM)	–	–	1 to 3 (≈ 2.52 to 7.55 µM)
O=C(NC(=O)c1ccsc1NC(=O)c1nc2ncccc2s1)OCC(F)(F)F [Compound 434]	25 to 50 (≈ 58.1 to 116 µM)	–	–	> 3
O=C(Nc1sccc1C(=O)Nc1nccs1)c1nc2cnccc2s1 [Compound 435]	25 to 50 (≈ 64.5 to 129 µM)	–	–	> 3
COCCOC(=O)NC(=O)c1ccsc1NC(=O)c1nc2ncccc2s1 [Compound 436]	25 to 50 (≈ 61.5 to 123 µM)	–	–	> 3
O=C(NC(=O)c1ccsc1NC(=O)c1nc2ncccc2s1)OCCOCc1ccccc1 [Compound 437]	< 25	–	–	< 1
CCOC(=O)NC(=O)c1ccsc1NC(=O)c1cn2cc(S(C)(=O)=O)ccc2n1 [Compound 438]	25 to 50 (≈ 57.3 to 115 µM)	–	–	< 1
CC(C)OC(=O)NC(=O)c1ccsc1NC(=O)c1cn2cc(S(C)(=O)=O)ccc2n1 [Compound 439]	25 to 50 (≈ 55.5 to 111 µM)	–	–	> 3
O=C(Nc1sccc1C(=O)Nc1cnccn1)c1nc2cnccc2s1 [Compound 440]	25 to 50 (≈ 65.4 to 131 µM)	–	–	> 3
O=C(Nc1sccc1C(=O)Nc1ncccn1)c1nc2cnccc2s1 [Compound 441]	25 to 50 (≈ 65.4 to 131 µM)	–	–	< 1
O=C(Nc1sccc1C(=O)Nc1cccnn1)c1nc2cnccc2s1 [Compound 442]	25 to 50 (≈ 65.4 to 131 µM)	–	–	1 to 3 (≈ 2.61 to 7.84 µM)

— patent US20160194299A1 (priority 2013, published 2016)
